From PubChem BioAssay (NCI)
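Dose response: 5 concentrations. Exposure: 48 h. Format: 96-well plates. Endpoint: linear interpolation; highest concentration if not reached. Here, GI50 denotes the concentration required for 50% inhibition of growth. TGI: total growth inhibition.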

Experiments:
Assay in all cases: NCI-60 cell line screen, 48 h
EKVX NSCLC = system: EKVX NSCLC
MCF7 breast = system: MCF7 breast
MOLT-4 leukemia = system: MOLT-4 leukemia
SF-295 CNS = system: SF-295 CNS
SK-MEL-28 melanoma = system: SK-MEL-28 melanoma
CAKI-1 renal = system: CAKI-1 renal
NCI/ADR-RES ovarian = system: NCI/ADR-RES ovarian
PC-3 prostate = system: PC-3 prostate
NCI-H23 lung = system: NCI-H23 lung
OVCAR-3 ovarian = system: OVCAR-3 ovarian

`CN1CCN(Cn2nc(-c3cc(F)c(Cl)cc3Cl)oc2=S)CC1` gave a GI50 (EKVX NSCLC) of over 100 µM, a TGI (EKVX NSCLC) of over 100 µM and a GI50 (MCF7 breast) of 30.2 µM. For the same compound, the TGI (MCF7 breast) was over 100 µM, the GI50 (MOLT-4 leukemia) was 30.5 µM and the TGI (MOLT-4 leukemia) was 70.9 µM. The GI50 (SF-295 CNS) was 42.4 µM, the TGI (SF-295 CNS) was over 100 µM and the GI50 (SK-MEL-28 melanoma) was 28.6 µM. For the same compound, the TGI (SK-MEL-28 melanoma) was over 100 µM, the GI50 (CAKI-1 renal) was 34.2 µM and the TGI (CAKI-1 renal) was over 100 µM. For the same compound, the GI50 (NCI/ADR-RES ovarian) was 83.6 µM, the TGI (NCI/ADR-RES ovarian) was over 100 µM and the GI50 (PC-3 prostate) was 43 µM. It also gave a TGI (PC-3 prostate) of over 100 µM, a GI50 (NCI-H23 lung) of 76.5 µM and a TGI (NCI-H23 lung) of over 100 µM. It also gave a GI50 (OVCAR-3 ovarian) of 37.4 µM and a TGI (OVCAR-3 ovarian) of over 100 µM.

Work on `COc1cccc2c1C(=O)c1c(O)c3c(c(O)c1C2=O)CC(O)(C(C)=O)CC3O` (centres undefined) yielded a TGI (EKVX NSCLC) of 20.6 µM, a TGI (MCF7 breast) of 16.2 µM and a TGI (MOLT-4 leukemia) of 11.3 µM. For the same compound, the TGI (SF-295 CNS) was 19.5 µM, the TGI (SK-MEL-28 melanoma) was 44.3 µM and the TGI (CAKI-1 renal) was 21.8 µM. It also gave a TGI (NCI/ADR-RES ovarian) of 22.4 µM, a TGI (NCI-H23 lung) of 16.4 µM and a TGI (OVCAR-3 ovarian) of 23.8 µM.

Compound `CN1C(=O)[C@@H]2[C@@H]3c4ccccc4N[C@@H]3c3[nH]c4ccccc4c3[C@@H]2C1=O` has a TGI (EKVX NSCLC) of over 100 µM, a TGI (MCF7 breast) of over 100 µM and a TGI (MOLT-4 leukemia) of 55.6 µM. For the same compound, the TGI (SF-295 CNS) was 47 µM, the TGI (SK-MEL-28 melanoma) was 67.9 µM and the TGI (CAKI-1 renal) was over 100 µM. The TGI (NCI/ADR-RES ovarian) was 52 µM, the TGI (PC-3 prostate) was 50.5 µM and the TGI (NCI-H23 lung) was 28.6 µM. It also gave a TGI (OVCAR-3 ovarian) of 40 µM.

With `O=c1[nH]c(-c2ccc(Cl)cc2)cc2ccsc12` the TGI (EKVX NSCLC) was over 100 µM, the TGI (MCF7 breast) was over 100 µM and the TGI (MOLT-4 leukemia) was over 100 µM. The TGI (SF-295 CNS) was 23.4 µM, the TGI (SK-MEL-28 melanoma) was over 100 µM and the TGI (CAKI-1 renal) was 7.04 µM. The TGI (NCI/ADR-RES ovarian) was over 100 µM, the TGI (PC-3 prostate) was over 100 µM and the TGI (NCI-H23 lung) was over 100 µM. The TGI (OVCAR-3 ovarian) was 4.26 µM.
